In this test the target is T1, full-length ATR (Homo sapiens, UniProt Q13535).
T1 construct: Assays were carried out at 25° C. in the presence of 5 nM full-length ATR
Nature of the test: ATR Inhibition Assay (radioactive-phosphate incorporation). Particulars: Ki(app); 5 nM full-length ATR, 10 μM [γ-33P]ATP, 800 μM target peptide, 25° C. The class given is biochemical. As for the experimental part: Compounds were screened for their ability to inhibit ATR kinase using a radioactive-phosphate incorporation assay. Assays were carried out in a mixture of 50 mM Tris/HCl (pH 7.5), 10 mM MgCl2 and 1 mM DTT. Final substrate concentrations were 10 μM [γ-33P]ATP (3mCi 33P ATP/mmol ATP, Perkin Elmer) and 800 μM target peptide (ASELPASQPQPFSAKKK).
Assays were carried out at 25° C. in the presence of 5 nM full-length ATR. An assay stock buffer solution was prepared containing all of the reagents listed above, with the exception of ATP and the test compound of interest. 13.5 μL of the stock solution was placed in a 96 well plate followed by addition of 2 μL of DMSO stock containing serial dilutions of the test compound (typically starting from a final concentration of 15 μM with 3-fold serial dilutions) in duplicate (final DMSO concentration 7%). The plate was pre-incubated for 10 minutes at 25° C. and the reaction initiated by addition of 15 μL [γ-33P]ATP (final concentration 10 μM).
The reaction was stopped after […] by the addition of 30 μL 0.1M phosphoric acid containing 2 mM ATP. A multiscreen phosphocellulose filter 96-well plate (Millipore, Cat no. MAPHN0B50) was pretreated with 100 μL 0.2M phosphoric acid prior to the addition of 45 μL of the stopped assay mixture. The plate was washed with 5×200 μL 0.2M phosphoric acid. After drying, 100 μL Optiphase ‘SuperMix’ liquid scintillation cocktail (Perkin Elmer) was added to the well prior to scintillation counting (1450 Microbeta Liquid Scintillation Counter, Wallac).
After removing mean background values for all of the data points, Ki(app) data were calculated from non-linear regression analysis of the initial rate data using the Prism software package (GraphPad Prism version 3.0cx for Macintosh, GraphPad Software, San Diego Calif., USA).

T1 sequence (Q13535 whole entry): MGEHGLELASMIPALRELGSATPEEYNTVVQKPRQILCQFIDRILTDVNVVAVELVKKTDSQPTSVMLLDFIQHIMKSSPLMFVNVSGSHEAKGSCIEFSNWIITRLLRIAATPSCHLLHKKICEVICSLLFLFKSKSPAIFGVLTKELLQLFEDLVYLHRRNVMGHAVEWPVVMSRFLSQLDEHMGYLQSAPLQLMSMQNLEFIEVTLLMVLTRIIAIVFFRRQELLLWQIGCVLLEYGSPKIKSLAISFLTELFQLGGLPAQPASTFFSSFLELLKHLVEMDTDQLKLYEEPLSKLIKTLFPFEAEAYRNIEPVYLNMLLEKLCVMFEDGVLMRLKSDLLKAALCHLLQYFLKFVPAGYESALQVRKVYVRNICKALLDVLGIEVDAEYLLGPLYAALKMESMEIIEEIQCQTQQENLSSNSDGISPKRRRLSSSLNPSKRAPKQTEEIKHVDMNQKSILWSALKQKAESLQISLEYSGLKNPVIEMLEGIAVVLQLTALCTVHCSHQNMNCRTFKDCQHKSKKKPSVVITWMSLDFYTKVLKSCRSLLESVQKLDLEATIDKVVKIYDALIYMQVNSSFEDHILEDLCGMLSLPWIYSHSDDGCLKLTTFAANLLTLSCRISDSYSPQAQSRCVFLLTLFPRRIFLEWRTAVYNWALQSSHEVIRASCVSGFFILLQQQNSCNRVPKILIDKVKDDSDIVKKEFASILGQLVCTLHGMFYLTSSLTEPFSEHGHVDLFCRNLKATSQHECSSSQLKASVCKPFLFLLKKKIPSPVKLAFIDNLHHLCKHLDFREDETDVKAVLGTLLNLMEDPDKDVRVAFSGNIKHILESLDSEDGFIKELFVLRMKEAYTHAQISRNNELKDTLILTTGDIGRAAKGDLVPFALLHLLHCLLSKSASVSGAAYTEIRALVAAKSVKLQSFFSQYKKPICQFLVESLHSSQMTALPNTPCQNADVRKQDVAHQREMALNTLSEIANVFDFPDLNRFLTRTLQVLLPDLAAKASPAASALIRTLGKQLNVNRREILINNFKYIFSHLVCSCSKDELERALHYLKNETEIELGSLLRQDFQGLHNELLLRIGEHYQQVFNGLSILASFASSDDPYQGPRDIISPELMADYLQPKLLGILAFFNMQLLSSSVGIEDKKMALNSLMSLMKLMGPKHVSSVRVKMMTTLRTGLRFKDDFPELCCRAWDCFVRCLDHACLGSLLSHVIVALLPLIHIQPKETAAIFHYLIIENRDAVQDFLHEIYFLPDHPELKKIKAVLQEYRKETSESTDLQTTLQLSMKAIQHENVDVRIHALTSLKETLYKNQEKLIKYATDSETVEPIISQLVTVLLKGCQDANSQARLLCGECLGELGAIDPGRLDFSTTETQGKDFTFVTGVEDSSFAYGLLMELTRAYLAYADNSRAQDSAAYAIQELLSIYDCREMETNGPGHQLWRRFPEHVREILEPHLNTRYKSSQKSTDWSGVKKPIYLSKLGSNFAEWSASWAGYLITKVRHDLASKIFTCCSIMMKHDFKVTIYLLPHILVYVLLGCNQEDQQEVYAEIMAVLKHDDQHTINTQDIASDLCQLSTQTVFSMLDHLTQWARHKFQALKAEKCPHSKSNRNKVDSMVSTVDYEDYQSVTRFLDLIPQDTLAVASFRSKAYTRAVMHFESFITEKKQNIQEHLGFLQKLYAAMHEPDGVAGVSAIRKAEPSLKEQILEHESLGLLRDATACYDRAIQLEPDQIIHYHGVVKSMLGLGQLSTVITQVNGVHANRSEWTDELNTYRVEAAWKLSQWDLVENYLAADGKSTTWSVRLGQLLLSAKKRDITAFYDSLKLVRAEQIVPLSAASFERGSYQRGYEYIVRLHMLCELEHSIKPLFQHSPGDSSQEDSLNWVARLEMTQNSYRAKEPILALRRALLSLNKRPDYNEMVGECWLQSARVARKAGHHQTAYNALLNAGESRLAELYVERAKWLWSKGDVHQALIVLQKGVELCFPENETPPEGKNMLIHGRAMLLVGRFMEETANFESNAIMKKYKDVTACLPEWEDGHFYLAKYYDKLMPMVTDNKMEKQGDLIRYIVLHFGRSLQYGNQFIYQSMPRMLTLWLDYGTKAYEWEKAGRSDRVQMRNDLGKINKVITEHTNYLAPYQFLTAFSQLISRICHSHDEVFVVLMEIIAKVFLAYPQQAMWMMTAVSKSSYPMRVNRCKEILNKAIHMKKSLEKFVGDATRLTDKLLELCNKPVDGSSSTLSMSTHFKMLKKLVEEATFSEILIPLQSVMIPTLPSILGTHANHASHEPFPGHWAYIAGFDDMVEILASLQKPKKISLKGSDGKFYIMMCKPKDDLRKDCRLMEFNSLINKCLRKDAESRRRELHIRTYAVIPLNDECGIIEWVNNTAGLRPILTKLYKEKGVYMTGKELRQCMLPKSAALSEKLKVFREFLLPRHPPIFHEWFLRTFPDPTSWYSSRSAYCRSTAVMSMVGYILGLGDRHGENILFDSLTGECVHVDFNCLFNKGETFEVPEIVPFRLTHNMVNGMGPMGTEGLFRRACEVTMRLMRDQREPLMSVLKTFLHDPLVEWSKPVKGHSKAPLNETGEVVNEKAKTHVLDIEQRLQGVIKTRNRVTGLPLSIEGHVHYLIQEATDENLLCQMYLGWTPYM

For the compound `CNCc1ccc(C(=O)Nc2c[nH]c3ncc(-c4ccc(S(=O)(=O)C(C)C)cc4)nc23)cc1` [Compound I-4, N-[2-(4-isopropylsulfonylphenyl)-5H-pyrrolo[2,3-b]pyrazin-7-yl]-4-(methylaminomethyl)benzamide], the Ki was at most 10 nM.
As to `CC(C)S(=O)(=O)c1ccc(-c2cnc3[nH]cc(NC(=O)c4ccc(Cl)cc4)c3n2)cc1` [Compound I-16, 4-chloro-N-[2-(4-isopropylsulfonylphenyl)-5H-pyrrolo[2,3-b]pyrazin-7-yl]benzamide], the Ki was 10 to 100 nM.
Turning to `CC(C)S(=O)(=O)c1ccc(-c2cnc3[nH]cc(NC(=O)c4ccc(N5CC[C@@H](N)C5)cc4)c3n2)cc1` [Compound I-41, 4-[(3R)-3-aminopyrrolidin-1-yl]-N-[2-(4-isopropylsulfonylphenyl)-5H-pyrrolo[2,3-b]pyrazin-7-yl]benzamide], the Ki was at most 10 nM.
The value for `CC(C)S(=O)(=O)c1ccc(-c2cnc3[nH]cc(NC(=O)C4CCNCC4)c3n2)cc1` [Compound I-35, N-[2-(4-isopropylsulfonylphenyl)-5H-pyrrolo[2,3-b]pyrazin-7-yl]piperidine-4-carboxamide] was 10 to 100 nM; that for `CC(C)S(=O)(=O)c1ccc(-c2cnc3[nH]cc(NC(=O)c4cccc(C(=O)O)c4)c3n2)cc1` [Compound I-7, 3-[[2-(4-isopropylsulfonylphenyl)-5H-pyrrolo[2,3-b]pyrazin-7-yl]carbamoyl]benzoic acid] was 100 to 500 nM.
As for `CC(C)S(=O)(=O)c1ccc(-c2cnc3[nH]cc(NC(=O)c4ccc(CN[C@H]5CCOC5)cc4)c3n2)cc1` [Compound I-5, N-[2-(4-isopropylsulfonylphenyl)-5H-pyrrolo[2,3-b]pyrazin-7-yl]-4-[[[(3S)-tetrahydrofuran-3-yl]amino]methyl]benzamide], the Ki was at most 10 nM.
`CC(C)S(=O)(=O)c1ccc(-c2cnc3[nH]cc(NC(=O)c4ccc(N5CCC(N)CC5)cc4)c3n2)cc1` [Compound I-20, 4-(4-amino-1-piperidyl)-N-[2-(4-isopropylsulfonylphenyl)-5H-pyrrolo[2,3-b]pyrazin-7-yl]benzamide]: the Ki was 10 to 100 nM.
In the case of `CNCc1cccc(C(=O)Nc2c[nH]c3ncc(-c4ccc(S(=O)(=O)C(C)C)cc4)nc23)c1` [Compound I-6, N-[2-(4-isopropylsulfonylphenyl)-5H-pyrrolo[2,3-b]pyrazin-7-yl]-3-(methylaminomethyl)benzamide], the Ki is at most 10 nM.
Turning to `CC(C)S(=O)(=O)c1ccc(-c2cnc3[nH]cc(NC(=O)CC#N)c3n2)cc1` [Compound I-37, 2-cyano-N-[2-(4-isopropylsulfonylphenyl)-5H-pyrrolo[2,3-b]pyrazin-7-yl]acetamide], the Ki fell in the range of 10 to 100 nM.
As for `CC(C)C(=O)Nc1c[nH]c2ncc(-c3ccc(S(=O)(=O)C(C)C)cc3)nc12` [Compound I-9, N-(2-(4-(isopropylsulfonyl)phenyl)-5H-pyrrolo[2,3-b]pyrazin-7-yl)isobutyramide], the Ki lay within 100 to 500 nM.
On to `CC(C)S(=O)(=O)c1ccc(-c2cnc3[nH]cc(NC(=O)c4cccc(N)c4)c3n2)cc1` [Compound I-2, 3-amino-N-[2-(4-isopropylsulfonylphenyl)-5H-pyrrolo[2,3-b]pyrazin-7-yl]benzamide], for which the Ki is at most 10 nM.
`CC(C)S(=O)(=O)c1ccc(-c2cnc3[nH]cc(NC(=O)c4ccccc4O)c3n2)cc1` [Compound I-14, 2-hydroxy-N-(2-(4-(isopropylsulfonyl)phenyl)-5H-pyrrolo[2,3-b]pyrazin-7-yl)benzamide]: the Ki is at most 10 nM.
